Results: article PMC6287599, “2,6-Bis(2-Benzimidazolyl)Pyridine (BBP) Is a Potent and Selective Inhibitor of Small Conductance Calcium-Activated Potassium (SK) Channels” (Frontiers in Pharmacology, 2018)

Assays:
hSK1 [1] = target: T1, hSK1 (Homo sapiens, UniProt Q92952); test: Automated patch clamp (QPatch 16), whole cell, stable HEK293 cell line expressing hSK1; assay type: cell-based; conditions: HEK stable line, 400 nM free intracellular calcium, mean ± SEM, n = 9
Method: Three different stable HEK293 cell lines expressing hSK1, hSK2 or hSK3 (NeuroSearch A/S, Ballerup, Denmark) and a CHO stable cell line expressing hERG (University of Copenhagen, Copenhagen, Denmark) were used for automated patch clamp. These cells were cultivated and prepared as previously described (Skarsfeldt et al., [2016]).
Automated patch clamp (QPatch 16, Sophion, Denmark) on SK-expressing HEK293 cell lines was conducted as previously described (Simó-Vicens et al., [2017b]). Briefly, SK currents were elicited by voltage-ramps starting at −80 mV and finishing at +80 mV from a holding potential of 0 mV. Extracellular solution contained 0.1 mM CaCl2, 3 mM MgCl2, 154 mM KCl, 10 mM HEPES and 10 mM glucose with pH 7.4. Intracellular solution for SK experiments contained 8.106 mM CaCl2 (final free calcium concentration of 400 nM), 1.167 mM MgCl2, 10 mM EGTA, 154 mM KCl, 10 mM HEPES, 31.25/ 10 mM KOH/EGTA and 15 mM KOH with pH 7.2. Automated patch clamp on hERG-expressing CHO cell line was performed also as previously described (Skarsfeldt et al., [2016]).
Individual IC50 values were calculated for each cell with the built-in nonlinear fit log(inhibitor) vs. normalized response equation:
Where Y is the normalized response, from 100, corresponding to current recorded during saline perfusion, down to 0, corresponding to currents recorded in the presence of bicuculline methiodide 100 μM. […]

hSK3 WT = target: T2, hSK3 WT (Homo sapiens, UniProt Q9UGI6); test: Manual whole cell patch clamp, HEK293 transiently transfected with hSK3 WT; assay type: cell-based; conditions: BBP 1 μM, compared to positive control bicuculline methiodide 100 μM, n = 5, read-out: Inhibition of hSK3 current
T2 construct: expressed in transfected cells; host or cells: HEK293 (transient, co-transfected with eGFP)
Method: (§1) HEK293 cells were transiently co-transfected with the plasmid of interest (hBK, hSK1, hSK2, hSK3 WT, rSK3 H491N, or hIK) and eGFP using standard Lipofectamine™ 2000 (Thermo Fisher Scientific, Waltham, Massachussets, USA) transfection protocols. After transfection, cells were incubated overnight before the experiments.
(§2) Manual patch clamp experiments were performed at room temperature in the whole cell configuration with a HEKA EPC9 amplifier and the Patchmaster software (HEKA Elektronik, Ludwigshafen, Germany). All currents were elicited every 2 s using an incremental 200 ms voltage-ramp protocol starting at −80 mV and finishing at +80 mV from a holding potential of 0 mV. […] Currents were measured using the same solutions as the ones used for automated patch clamp, with symmetrical potassium concentrations and a free intracellular calcium concentration of 400 nM. […]
(§3) To assess the effect of BBP on other calcium-activated potassium channels (hBK, hSK3 WT, rSK3 H491N, and hIK), each individual current was first normalized to its cell size using membrane's capacitance (pA/pF) before statistical analysis. […] Statistical significance between saline and the effect of both BBP and the corresponding reference compound was determined for each channel using one-way ANOVA analysis. […]

hSK2 = hSK2 (Homo sapiens, UniProt Q9H2S1); test: Manual whole cell patch clamp, HEK293 transiently transfected with hSK2; assay type: cell-based; conditions: BBP 1 μM, compared to positive control bicuculline methiodide 100 μM, n = 5, read-out: Inhibition of hSK2 current
Method: as §1, §2, §3

hSK1 [2] = target: T1, hSK1; test: Manual whole cell patch clamp, HEK293 transiently transfected with hSK1; assay type: cell-based; conditions: BBP 1 μM, compared to positive control bicuculline methiodide 100 μM, n = 6, read-out: Inhibition of hSK1 current
Method: as §1, §2, §3

all SK channel subtypes = test: Manual patch clamp, summary over all SK channel subtypes; assay type: cell-based, human; conditions: BBP 1 μM
Method: as §1, §2, §3

IC50 (hSK1 [1]): 0.7 ± 0.2 µM
inhibition at 1 µM (hSK3 WT): 92.5 ± 2.3%
inhibition at 1 µM (hSK2): 94.8 ± 2.1%
inhibition at 1 µM (hSK1 [2]): 93.7 ± 1.6%
Compound: c1cc(-c2nc3ccccc3[nH]2)nc(-c2nc3ccccc3[nH]2)c1 [BBP, 2,6-Bis(2-benzimidazolyl)pyridine]
Effect on all SK currents (in words) (all SK channel subtypes): totally inhibited
Voltage dependence of inhibition (−80 vs +80 mV) (all SK channel subtypes): no significant differences
